Reference: PubChem BioAssay AID248 (DTP/NCI, 2004)
Inconclusive results and toxic doses are left out. Rule as the data show it: active = T/C of 150% or more; inactive = T/C below 125%.

Test system: L1210 leukemia ip in BDF1 mice, survival T/C
Experiment: NCI In Vivo Anticancer Drug Screen. Data for tumor model L1210 Leukemia (intraperitoneal) in B6D2F1 (BDF1) mice
Details: endpoint: mean survival time, higher = longer survival
Outline: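 Transplantable tumor model; survival measured in treated vs vehicle control mice. Value = treated/control.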

[1] = dose: 6.25 mg/kg/injection, schedule: Q01DX009 (ip), vehicle: saline
[2] = dose: 12.5 mg/kg/injection, schedule: Q01DX009 (ip), vehicle: saline
[3] = dose: 12.5 mg/kg/injection, schedule: Q04DX003 (ip), vehicle: saline
[4] = dose: 25.0 mg/kg/injection, schedule: Q04DX003 (ip), vehicle: saline
[5] = dose: 50.0 mg/kg/injection, schedule: Q04DX003 (ip), vehicle: saline
[6] = dose: 100.0 mg/kg/injection, schedule: Q01DX001 (ip), vehicle: saline
[7] = dose: 200.0 mg/kg/injection, schedule: Q01DX001 (ip), vehicle: saline
[8] = dose: 100.0 mg/kg/injection, schedule: Q04DX002 (ip), vehicle: saline with Tween-80
[9] = dose: 400.0 mg/kg/injection, schedule: Q04DX002 (ip), vehicle: saline with Tween-80
[10] = dose: 100.0 mg/kg/injection, schedule: Q01DX001 (ip), vehicle: carboxymethylcellulose (CMC)
[11] = dose: 200.0 mg/kg/injection, schedule: Q01DX001 (ip), vehicle: carboxymethylcellulose (CMC)
[12] = dose: 400.0 mg/kg/injection, schedule: Q01DX001 (ip), vehicle: carboxymethylcellulose (CMC)
[13] = dose: 100.0 mg/kg/injection, schedule: Q04DX003 (ip), vehicle: saline
[14] = dose: 200.0 mg/kg/injection, schedule: Q04DX003 (ip), vehicle: saline

Measured: T/C

c1cc[n+]2c(c1)-c1cccc[n+]1CC2
inactive: [1] 108 % of control | [2] 104 % of control | [3] 104 % of control | dose: 15.0 mg/kg/injection, schedule: Q01DX001 (ip), vehicle: saline 95 % of control | [4] 104 % of control | dose: 30.0 mg/kg/injection, schedule: Q01DX001 (ip), vehicle: saline 102 % of control | [5] 101 % of control | dose: 60.0 mg/kg/injection, schedule: Q01DX001 (ip), vehicle: saline 102 % of control | dose: 75.0 mg/kg/injection, schedule: Q01DX001 (ip), vehicle: saline 95 % of control

Oc1c(Cl)cc(Cl)cc1C=Nc1ccc(Br)cn1
inactive: dose: 100.0 mg/kg/injection, schedule: Q01DX001 (ip), vehicle: other 95 % of control | dose: 200.0 mg/kg/injection, schedule: Q01DX001 (ip), vehicle: other 101 % of control | dose: 400.0 mg/kg/injection, schedule: Q01DX001 (ip), vehicle: other 95 % of control

N#CC(c1cnc2ccccc2n1)c1cccc2ccccc12 (centres undefined)
inactive: [6] 94 % of control | [7] 92 % of control | dose: 400.0 mg/kg/injection, schedule: Q01DX001 (ip), vehicle: saline 97 % of control

NC(=O)c1c(/N=C/c2cc(Br)ccc2O)sc2c1CCCC2
inactive: dose: 25.0 mg/kg/injection, schedule: Q04DX002 (ip), vehicle: saline with Tween-80 87 % of control | dose: 50.0 mg/kg/injection, schedule: Q04DX002 (ip), vehicle: saline with Tween-80 87 % of control | [8] 93 % of control | [9] 87 % of control

CC(=O)OCC1OC(n2c(O)c(/C=C3\C=Nc4ccccc43)sc2=S)C(OC(C)=O)C(OC(C)=O)C1OC(C)=O (centres undefined)
inactive: dose: 12.5 mg/kg/injection, schedule: Q01DX005 (ip), vehicle: other 94 % of control | dose: 25.0 mg/kg/injection, schedule: Q01DX005 (ip), vehicle: other 91 % of control | dose: 50.0 mg/kg/injection, schedule: Q01DX005 (ip), vehicle: other 92 % of control | dose: 100.0 mg/kg/injection, schedule: Q01DX005 (ip), vehicle: other 111 % of control | dose: 200.0 mg/kg/injection, schedule: Q01DX005 (ip), vehicle: other 94 % of control

Cc1cn(C2CC(O)C(CO)O2)c(=O)n(CCCc2ccccc2)c1=O (centres undefined)
inactive: dose: 50.0 mg/kg/injection, schedule: Q01DX001 (ip), vehicle: carboxymethylcellulose (CMC) 93 % of control | [10] 90 % of control | [11] 87 % of control | [12] 90 % of control

COC1OC2COC(c3ccccc3)OC2C(O)C1OC (centres undefined)
inactive: dose: 12.5 mg/kg/injection, schedule: Q04DX002 (ip), vehicle: saline 100 % of control | dose: 25.0 mg/kg/injection, schedule: Q04DX002 (ip), vehicle: saline 100 % of control | dose: 50.0 mg/kg/injection, schedule: Q04DX002 (ip), vehicle: saline 116 % of control

COC(=O)[C@H]1[C@H]2C[C@@H]3c4[nH]c5cc(OC)ccc5c4CCN3C[C@H]2C[C@@H](OC(=O)c2cc(OC)c(OC)c(OC)c2)[C@@H]1OC
inactive: dose: 1.0 mg/kg/injection, schedule: Q01DX Z (ip), vehicle: carboxymethylcellulose (CMC) 100 % of control | dose: 1.56 mg/kg/injection, schedule: Q01DX001 (ip), vehicle: other 100 % of control | dose: 1.56 mg/kg/injection, schedule: Q01DX009 (ip), vehicle: saline 111 % of control | dose: 1.56 mg/kg/injection, schedule: Q04DX003 (ip), vehicle: other 95 % of control | dose: 2.0 mg/kg/injection, schedule: Q01DX Z (ip), vehicle: carboxymethylcellulose (CMC) 100 % of control | dose: 3.12 mg/kg/injection, schedule: Q01DX001 (ip), vehicle: other 96 % of control | dose: 3.12 mg/kg/injection, schedule: Q01DX009 (ip), vehicle: saline 109 % of control | dose: 3.12 mg/kg/injection, schedule: Q04DX003 (ip), vehicle: other 95 % of control | dose: 5.0 mg/kg/injection, schedule: Q01DX001 (ip), vehicle: other 92 % of control | dose: 5.25 mg/kg/injection, schedule: Q01DX009 (ip), vehicle: other 98 % of control | dose: 6.25 mg/kg/injection, schedule: Q01DX001 (ip), vehicle: other 96 % of control | [1] 101 % of control | dose: 6.25 mg/kg/injection, schedule: Q04DX003 (ip), vehicle: other 115 % of control | dose: 6.25 mg/kg/injection, schedule: Q04DX003 (ip), vehicle: saline 90 % of control | dose: 9.2 mg/kg/injection, schedule: Q04DX003 (ip), vehicle: other 101 % of control | dose: 10.0 mg/kg/injection, schedule: Q01DX001 (ip), vehicle: other 100 % of control | dose: 12.5 mg/kg/injection, schedule: Q01DX001 (ip), vehicle: carboxymethylcellulose (CMC) 103 % of control | [2] 104 % of control | [3] 108 % of control | dose: 14.0 mg/kg/injection, schedule: Q04DX003 (ip), vehicle: other 88 % of control | dose: 20.0 mg/kg/injection, schedule: Q01DX001 (ip), vehicle: other 97 % of control | dose: 21.0 mg/kg/injection, schedule: Q04DX003 (ip), vehicle: other 95 % of control | dose: 25.0 mg/kg/injection, schedule: Q01DX009 (ip), vehicle: saline 92 % of control | [4] 103 % of control | dose: 40.0 mg/kg/injection, schedule: Q01DX001 (ip), vehicle: other 97 % of control | dose: 80.0 mg/kg/injection, schedule: Q01DX001 (ip), vehicle: other 94 % of control

O=C(O)c1ccc2c(c1)C(=O)N(c1ccccc1)C2=O
inactive: [8] 93 % of control | dose: 200.0 mg/kg/injection, schedule: Q04DX002 (ip), vehicle: saline with Tween-80 93 % of control | [9] 97 % of control

CSc1ncc(C(N)=O)c(N)n1
inactive: dose: 222.0 mg/kg/injection, schedule: Q01DX Z (ip), vehicle: saline 102 % of control | dose: 333.0 mg/kg/injection, schedule: Q01DX Z (ip), vehicle: saline 89 % of control | dose: 500.0 mg/kg/injection, schedule: Q01DX Z (ip), vehicle: saline 95 % of control

C=CC1CNCCC1CC(=O)OCC (centres undefined)
inactive: [5] 97 % of control | [6] 95 % of control | [13] 95 % of control | [7] 91 % of control | [14] 111 % of control

CN(Cc1ccc([N+](=O)[O-])cc1)C(=O)Nc1ccc(S(=O)(=O)F)cc1
inactive: [13] 98 % of control | [14] 101 % of control | dose: 400.0 mg/kg/injection, schedule: Q04DX003 (ip), vehicle: saline 104 % of control

ClCCN(CCCl)c1ccc(/C=N/N2CCN(/N=C/c3ccc(N(CCCl)CCCl)cc3)CC2)cc1
inactive: [10] 97 % of control | [11] 92 % of control | [12] 106 % of control
